According to patent publication US20250051321A1, “TRICYCLIC DERIVATIVE AND PREPARATION METHOD THEREFOR AND APPLICATION THEREOF” (SHANGHAI JEMINCARE PHARMACEUTICAL CO., LTD., priority 2021, published 2025):
Where two headings read alike, the source gives them in different places.

Tests used:
[1] = Pharmacokinetic test in mice; assay type: in vivo, ICR mice
Protocol: Dosage preparation: The dosing solution was prepared on the day of dosing. 2 mg of compound was weighed and dissolved in 5% DMSO+10% solutol+85% saline to prepare a solution for intravenous administration at a concentration of 0.2 mg/mL. 2 mg of compound was weighed and dissolved in 25% PEG 200+75% (0.5% MC) to obtain a solution for oral administration at a concentration of 1 mg/mL.
Six healthy male naïve ICR mice, weighing 25 to 30 g, were divided into two groups (intravenous and oral groups) with three in each group, and administered in a single dose. After 3 days of acclimatization, the mice were fasted overnight (10 to 12 hours) the night before the experiment, but had free access to water during the experiment, and the diet was resumed 4 hours after administration. After intravenous and oral administration, the timer was started. Blood was collected via the orbital venous plexus at the scheduled time points (IV&PO: 0.083, 0.25, 0.5, 1, 2, 4, 6, 8, and 24 hours). 40 μL of whole blood was collected at each point and added to a 1.5 mL EP tube containing sodium heparin. The collected whole blood was vibrated twice on a vortex mixer, mixed well, placed on wet ice, and centrifuged at 8000 rpm for 5 minutes at 4° C. within 1 hour. The supernatant plasma was stored in a −80° C. freezer until processing for analysis.

ATX = ATX (Homo sapiens (Human), UniProt Q13822); assay: ATX enzyme inhibition assay (Amplex UltraRed/choline oxidase/HRP, 16:0 Lyso PC substrate); assay type: biochemical
Procedure, shortened: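 ATX (2× stock […]) preincubated with compound for 10 min at room temperature in assay buffer at pH 8.5 or 7.5. Reaction started with 16:0 Lyso PC, choline oxidase, HRP and Amplex UltraRed (2.5× working stock); fluorescence read kinetically (ex 550/em 590 nm) for 60 min.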

[2] = test system: plasma LPA 18:1 and LPA 18:2; assay: Human plasma ex vivo assay (LPA 18:1 / 18:2 by LC-MS/MS); assay type: biochemical; conditions: 37° C., 2 hours
Procedure, shortened: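 Human plasma incubated 2 h at 37° C with compound (8 points, 1:3 dilution, top 10 μM, 0.1% DMSO), then quenched with 0.1% FA containing LPA 17:0 internal standard.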

[3] = assay buffer pH 7.5, read-out: IC50 (nM) pH 7.5
[4] = assay buffer pH 8.5, read-out: IC50 (nM) pH 8.5
[5] = LPA 18:1, read-out: Human plasma ex vivo assay IC50 (18:1 LPA)
[6] = LPA 18:2, read-out: Human plasma ex vivo assay IC50 (18:2 LPA)
[7] = male, ICR, mouse, plasma, 1 mg/kg, IV - 1 mpk
[8] = male, ICR, mouse, plasma, 5 mg/kg, PO - 5 mpk

IC50 (ATX; [3]) [nM] | IC50 (ATX; [4]) [nM] | IC50 [2, 5] [nM] | IC50 [2, 6] [nM] | AUC [1, 8] [ng·h/mL] | Cmax [1, 8] [ng/mL] | Tmax [1, 8] [min] | half-life [1, 8] [min] | SMILES | also measured
63.5 | 36.3 | 521 | 438 |  |  |  |  | CN(c1nc(-c2ccc(F)cc2)c(C#N)s1)c1c2c(nc3c(F)cc(N4CC5(CN(C(=O)[C@H]6CCOC6)C5)C4)cc13)CCC2 [Example C1] | AUCi ([1]; IV - 1 mpk): 5701 ng·h/mL; C0 (IV) ([1]; IV - 1 mpk): 3141 ng/mL; CL (mL/min/kg, IV) ([1]; IV - 1 mpk): 2.92 mL/min/kg; T1/2 ([1]; IV - 1 mpk): 2.15 h; AUCi ([1]; PO - 5 mpk): 7392 ng·h/mL; Cmax (PO) ([1]; PO - 5 mpk): 1903 ng/mL; T1/2 ([1]; PO - 5 mpk): 2.08 h; Tmax (hr, PO) ([1]; PO - 5 mpk): 1.0 h; Bioavailability (%) ([1]; PO - 5 mpk vs IV - 1 mpk): 26%
67.3 | 27.5 | 168 | 191 | 7940 | 2920 | 15 | 144 | CN(c1nc(-c2ccc(F)cc2)c(C#N)s1)c1c2c(nc3c(F)cc(N4CC5(CN(C(=O)[C@@H]6CCOC6)C5)C4)cc13)CC2 [Example C8] | AUC [1, 7]: 2080 ng·h/mL; C0 [1, 7]: 1800 ng/mL; half-life [1, 7]: 73.8 min; clearance ([1]; male, ICR, mouse, plasma, 1 mg/kg, IV - 1 mpk, read-out: CL (mL/min/kg, IV)): 8 mL/min/kg; bioavailability ([1]; male, ICR, mouse, plasma, 5 mg/kg, PO - 5 mpk vs IV - 1 mpk): 76.2%
 | 25.9 | 318 | 318 | 16900 | 4280 | 30 | 128 | CN(c1nc(-c2ccc(F)cc2)c(C#N)s1)c1c2c(nc3ncc(N4CC5(CN(C(=O)[C@@H]6CCOC6)C5)C4)cc13)CC2 [Example C17] | 
